Data: patent US4931498A, “Immobilized artificial membranes” (Purdue Research Foundation, priority 1988, dated 1990)
Square brackets hold non-standard residues; d marks the D form. Ends that are not written are not given here. Peptide text beside a SMILES is read from it.

Experiments:
[1] = HPLC elution on Nucleosil-lecithin (immobilized artificial membrane) column; format: physicochemical; design: Elution times: unit not given beside the values; settings: for Elution times: Nucleosil-lecithin column, mobile phase isotonic buffered saline at 1.0 ml/min, detection at 260 nm; for Elution Volumes on Nucleosil-Lecithin, Mobile Phase 0.1% TFA: peptides dissolved in 0.1% aqueous TFA; for Elution Volumes on Nucleosil-Lecithin, Mobile Phase 0.1% TFA / Elution Volumes on Nucleosil-Lecithin, Mobile Phase PBS: detection 220 nm; for Elution Volumes on Nucleosil-Lecithin, Mobile Phase PBS: mobile phase isotonic phosphate buffered saline (pH 7.34)
Method: A 4 mm×100 mm HPLC column was packed with about one gram of Nucleosil-lecithin (pooled from several preparations above) using a Shandon column packer. Excess Nucleosil-lecithin (1.45 grams) was suspended in 15 ml of degassed methanol and then sonicated 5 minutes to assure particle dispersion. The dispersion was transferred to the 30-ml slurry reservoir on the column packer, and 15 ml of degassed methanol was added to fill the reservoir. The column was packed at 4500 psi.
The HPLC elution properties of the Nucleosil-lecithin column were evaluated.
Separation of 2-deoxycytidine (C), 2-deoxyuridine (U), 2'-deoxyguanosine (G) and 2'-deoxyadenosine (A) was effected using isotonic buffered saline as the mobile phase at 1.0 ml/min with detection at 260 nm. Elution times were as follows: C - 1.175; U - 1.465; G - 1.730; and A - 2.090.
FIG. 11 is a chromatogram for a mixture of Peptides I and II, dissolved in 0.1% aqueous trifluoracetic acid (TFA) and detected at 220 nm. In FIG. 11 the mobile phase was isotonic phosphate buffered saline (pH 7.34). FIG. 12 is a chromatogram for a mixture of Peptides III and IV, dissolved in 0.1% aqueous trifluoracetic acid (TFA) and detected at 220 nm. In FIG. 12 the mobile phase was 0.1% TFA.

[2] = HPLC elution on cholesterol-loaded Nucleosil-lecithin column; format: physicochemical; settings: for Elution Volumes by Mobile Phase, H2O: mobile phase water
Method: The Nucleosil-lecithin chromatography support material was then "loaded" with cholesterol in situ using the following procedure.
A solution of 80 ml of 1 mg/ml cholesterol in MeOH:isopropanol/8:2 was pumped through the Nucleosil-lecithin using a Bendex pump. […] Approximately […] was recovered in the effluent showing that 40 mg of cholesterol was loaded onto the Nucleosil-lecithin column. This is approximately 50% by weight of the bonded phase. The Nucleosil-lecithin/cholesterol column containing MeOH/isopropanol was attached to the HPLC and eluted with water (approximately 100 ml). The mobile phase was changed to 0.1% TFA and peptides dissolved in 0.1% TFA were injected to determine the elution volumes. The mobile phase was changed to water and the peptides were reinjected after the column was equilibrated with 100 ml of water to determine the elution volumes. The column was washed with PBS buffer (100 ml) and the peptides were again injected to determine elution volumes using PBS as the mobile phase.

Compound | Elution times [1] | Elution Volumes by Mobile Phase, 0.1% TFA [2] | Elution Volumes on Nucleosil-Lecithin, Mobile Phase 0.1% TFA [1] | Elution Volumes on Nucleosil-Lecithin, Mobile Phase PBS [1] | Elution Volumes by Mobile Phase, PBS [2] | Elution Volumes by Mobile Phase, H2O [2]
O=c1ccn([C@H]2C[C@H](O)[C@@H](CO)O2)c(=O)[nH]1 [2-deoxyuridine] | 1.465 | – | – | – | – | –
CGYGSTWP [Peptide V, NH2 C-G-Y-G-S-T-W-P--COOH] | – | 6.6 | – | – | – | –
Nc1ncnc2c1ncn2[C@H]1C[C@H](O)[C@@H](CO)O1 [2'-deoxyadenosine] | 2.090 | – | – | – | – | –
MPSWTGGC [Peptide III, NH2 M-P-S-W-T-G-G-C--COOH] | – | 5.3 | 9.4 | 10.0 | 6.9 | 9.2
Nc1nc2c(ncn2[C@H]2C[C@H](O)[C@@H](CO)O2)c(=O)[nH]1 [2'-deoxyguanosine] | 1.730 | – | – | – | – | –
Nc1ccn([C@H]2C[C@H](O)[C@@H](CO)O2)c(=O)n1 [2-deoxycytidine] | 1.175 | – | – | – | – | –
HIFNQ-NH2 [Peptide VI, NH2 H-I-F-N-QNH2] | – | 1.0 | – | 5.8 | 4.2 | 0.8
YGSTWPGC [Peptide I, NH2 Y-G-S-T-W-P-G-C--COOH] | – | 5.3 | 7.3 | 13.1 | 7.9 | 7.3
Ac-HIFNQ-NH2 [Peptide VII, NacH-I-F-N-QNH2] | – | 1.3 | – | 3.8 | 3.2 | 0.8
MPSWTGG [Peptide IV, NH2 M-P-S-W-T-G-G-COOH] | – | 2.9 | 4.1 | 4.2 | 5.0 | 4.9
YGSTWPG [Peptide II, NH2 Y-G-S-T-W-P-G-COOH] | – | 2.7 | 3.1 | 7.6 | 4.8 | 6.6
CSCC[C@@H](N)C(=O)N1CCC[C@@H]1C(=O)N[C@H](CO)C(=O)N[C@H](Cc1c[nH]c2ccccc12)C(=O)N[C@@H](C(=O)NCC(=O)NCC(=O)N[C@H](CS)C(=O)O)[C@H](C)O [Peptide VIII, NH2 d,M-d,P-d,S-d,W-d,T-G-G-d,C--COOH] (H-[dM][dP][dS][dW][dT]GG[dC]-OH) | – | 5.0 | – | – | 6.5 | 3.0
